Results on one compound are retold here after ChEMBL document CHEMBL1201861, “Genomics of Drug Sensitity in Cancer screening data, Wellcome Trust Sanger Institute”.

A value given as a limit tells only on which side of the number the result lay.

The test system of the first assay is A2058. As to the kind of experiment: cells. Conditions: Homo sapiens. The format is functional, cell-based.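 Note: reduction of A2058 cell growth, read out with a viability assay.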
Description: SANGER: Inhibition of human A2058 cell growth in a cell viability assay.
One may read the IC50 as the point on the concentration scale where inhibition reaches its midpoint. High values mean weaker potency, low ones greater potency. Turning to `CC1(C)CCC(c2ccc(Cl)cc2)=C(CN2CCN(c3ccc(C(=O)NS(=O)(=O)c4ccc(N[C@H](CCN5CCOCC5)CSc5ccccc5)c(S(=O)(=O)C(F)(F)F)c4)cc3)CC2)C1` [NAVITOCLAX], the concentration for half-maximal inhibition (IC50) is greater than 2000 nM.

Another assay relates to HOS. As to the kind of experiment: cells. Type of assay: functional, cell-based. The note with it: Homo sapiens.
Description: SANGER: Inhibition of human HOS cell growth in a cell viability assay.
Regarding `CC1(C)CCC(c2ccc(Cl)cc2)=C(CN2CCN(c3ccc(C(=O)NS(=O)(=O)c4ccc(N[C@H](CCN5CCOCC5)CSc5ccccc5)c(S(=O)(=O)C(F)(F)F)c4)cc3)CC2)C1` [NAVITOCLAX], the IC50 was greater than 2000 nM.

In the next assay the test system is M059J. Briefly: cells. Type of assay: functional, cell-based. The note with it: Homo sapiens.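 Note: growth inhibition of M059J cells, read out with a cell viability assay.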
Description: SANGER: Inhibition of human M059J cell growth in a cell viability assay.
For `CC1(C)CCC(c2ccc(Cl)cc2)=C(CN2CCN(c3ccc(C(=O)NS(=O)(=O)c4ccc(N[C@H](CCN5CCOCC5)CSc5ccccc5)c(S(=O)(=O)C(F)(F)F)c4)cc3)CC2)C1` [NAVITOCLAX], the 50% inhibitory concentration (IC50) was greater than 2000 nM.

The test system of another assay is KU-19-19. Briefly: cells. The format is functional, cell-based. Conditions: Homo sapiens.
Description: SANGER: Inhibition of human KU-19-19 cell growth in a cell viability assay.
On to `CC1(C)CCC(c2ccc(Cl)cc2)=C(CN2CCN(c3ccc(C(=O)NS(=O)(=O)c4ccc(N[C@H](CCN5CCOCC5)CSc5ccccc5)c(S(=O)(=O)C(F)(F)F)c4)cc3)CC2)C1` [NAVITOCLAX], for which the IC50 is greater than 2000 nM.

In another assay the test system is MDA-MB-453. As to the kind of experiment: cells. Type of assay: functional, cell-based. The note with it: Homo sapiens.
Description: SANGER: Inhibition of human MDA-MB-453 cell growth in a cell viability assay.
`CC1(C)CCC(c2ccc(Cl)cc2)=C(CN2CCN(c3ccc(C(=O)NS(=O)(=O)c4ccc(N[C@H](CCN5CCOCC5)CSc5ccccc5)c(S(=O)(=O)C(F)(F)F)c4)cc3)CC2)C1` [NAVITOCLAX] came in with a half-inhibitory concentration (IC50) greater than 2000 nM.

In the next assay the test system is Capan-2. Briefly: cells. Type of assay: functional, cell-based. The note with it: Homo sapiens.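 Note: Capan-2 cell growth inhibition, read out with a viability assay.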
Description: SANGER: Inhibition of human Capan-2 cell growth in a cell viability assay.
On to `CC1(C)CCC(c2ccc(Cl)cc2)=C(CN2CCN(c3ccc(C(=O)NS(=O)(=O)c4ccc(N[C@H](CCN5CCOCC5)CSc5ccccc5)c(S(=O)(=O)C(F)(F)F)c4)cc3)CC2)C1` [NAVITOCLAX], for which the IC50 is greater than 2000 nM.

For a further assay, the system named is BHY. As to the kind of experiment: cells. The note with it: Homo sapiens. The format is functional, cell-based.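 Note: cell growth inhibition read out by a viability assay.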
Description: SANGER: Inhibition of human BHY cell growth in a cell viability assay.
With `CC1(C)CCC(c2ccc(Cl)cc2)=C(CN2CCN(c3ccc(C(=O)NS(=O)(=O)c4ccc(N[C@H](CCN5CCOCC5)CSc5ccccc5)c(S(=O)(=O)C(F)(F)F)c4)cc3)CC2)C1` [NAVITOCLAX], the IC50 was greater than 2000 nM.

The next assay deals with KYSE-70 cell line. Briefly: cells. The format is functional, cell-based. The note with it: Homo sapiens.
Description: SANGER: Inhibition of human KYSE-70 cell growth in a cell viability assay.
`CC1(C)CCC(c2ccc(Cl)cc2)=C(CN2CCN(c3ccc(C(=O)NS(=O)(=O)c4ccc(N[C@H](CCN5CCOCC5)CSc5ccccc5)c(S(=O)(=O)C(F)(F)F)c4)cc3)CC2)C1` [NAVITOCLAX] returned a half-maximal inhibitory concentration (IC50) greater than 2000 nM.

In the next assay the test system is NCI-H2170. As to the kind of experiment: cells. Type of assay: functional, cell-based. Conditions: Homo sapiens.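 Note: cell viability assay measuring growth inhibition of human NCI-H2170 cancer cells.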
Description: SANGER: Inhibition of human NCI-H2170 cell growth in a cell viability assay.
Compound `CC1(C)CCC(c2ccc(Cl)cc2)=C(CN2CCN(c3ccc(C(=O)NS(=O)(=O)c4ccc(N[C@H](CCN5CCOCC5)CSc5ccccc5)c(S(=O)(=O)C(F)(F)F)c4)cc3)CC2)C1` [NAVITOCLAX] returned an IC50 of 1060 nM.

The next assay relates to NB7. Briefly: cells. The format is functional, cell-based, Homo sapiens. Conditions: Homo sapiens, NB7.
Description: SANGER: Inhibition of human NB7 cell growth in a cell viability assay.
The compound `CC1(C)CCC(c2ccc(Cl)cc2)=C(CN2CCN(c3ccc(C(=O)NS(=O)(=O)c4ccc(N[C@H](CCN5CCOCC5)CSc5ccccc5)c(S(=O)(=O)C(F)(F)F)c4)cc3)CC2)C1` [NAVITOCLAX] registered a 50% inhibitory concentration (IC50) greater than 2000 nM.

The subject of the next assay is HCC70. Briefly: cells. The format is functional, cell-based. Conditions: Homo sapiens.
Description: SANGER: Inhibition of human HCC70 cell growth in a cell viability assay.
`CC1(C)CCC(c2ccc(Cl)cc2)=C(CN2CCN(c3ccc(C(=O)NS(=O)(=O)c4ccc(N[C@H](CCN5CCOCC5)CSc5ccccc5)c(S(=O)(=O)C(F)(F)F)c4)cc3)CC2)C1` [NAVITOCLAX] yielded an IC50 greater than 2000 nM.

For another assay, the system named is RT-112. Briefly: cells. Conditions: Homo sapiens. The format is functional, cell-based.
Description: SANGER: Inhibition of human RT-112 cell growth in a cell viability assay.
With `CC1(C)CCC(c2ccc(Cl)cc2)=C(CN2CCN(c3ccc(C(=O)NS(=O)(=O)c4ccc(N[C@H](CCN5CCOCC5)CSc5ccccc5)c(S(=O)(=O)C(F)(F)F)c4)cc3)CC2)C1` [NAVITOCLAX], the half-inhibitory concentration (IC50) was greater than 2000 nM.

Another assay concerns Ca9-22. Briefly: cells. Conditions: Homo sapiens. Type of assay: functional, cell-based.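 Note: growth inhibition of Ca9-22 cells, read out with a cell viability assay.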
Description: SANGER: Inhibition of human Ca9-22 cell growth in a cell viability assay.
`CC1(C)CCC(c2ccc(Cl)cc2)=C(CN2CCN(c3ccc(C(=O)NS(=O)(=O)c4ccc(N[C@H](CCN5CCOCC5)CSc5ccccc5)c(S(=O)(=O)C(F)(F)F)c4)cc3)CC2)C1` [NAVITOCLAX]: the half-maximal inhibitory concentration (IC50) is greater than 2000 nM.

Another assay deals with SW1417. As to the kind of experiment: cells. Type of assay: functional, cell-based. The note with it: Homo sapiens.
Description: SANGER: Inhibition of human SW1417 cell growth in a cell viability assay.
For the compound `CC1(C)CCC(c2ccc(Cl)cc2)=C(CN2CCN(c3ccc(C(=O)NS(=O)(=O)c4ccc(N[C@H](CCN5CCOCC5)CSc5ccccc5)c(S(=O)(=O)C(F)(F)F)c4)cc3)CC2)C1` [NAVITOCLAX], inhibition was half-maximal at 554 nM (IC50).

The next assay concerns HEC-1. As to the kind of experiment: cells. The format is functional, cell-based. The note with it: Homo sapiens.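 Note: growth inhibition of the cell line, read out with a cell viability assay.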
Description: SANGER: Inhibition of human HEC-1 cell growth in a cell viability assay.
Take `CC1(C)CCC(c2ccc(Cl)cc2)=C(CN2CCN(c3ccc(C(=O)NS(=O)(=O)c4ccc(N[C@H](CCN5CCOCC5)CSc5ccccc5)c(S(=O)(=O)C(F)(F)F)c4)cc3)CC2)C1` [NAVITOCLAX]: the 50% inhibitory concentration (IC50) was greater than 2000 nM.

A further assay has as its system HT-1376. Briefly: cells. The format is functional, cell-based. Conditions: Homo sapiens.
Description: SANGER: Inhibition of human HT-1376 cell growth in a cell viability assay.
`CC1(C)CCC(c2ccc(Cl)cc2)=C(CN2CCN(c3ccc(C(=O)NS(=O)(=O)c4ccc(N[C@H](CCN5CCOCC5)CSc5ccccc5)c(S(=O)(=O)C(F)(F)F)c4)cc3)CC2)C1` [NAVITOCLAX] had an IC50 greater than 2000 nM.

The next assay relates to H4. Briefly: cells. The format is functional, cell-based. Conditions: Homo sapiens.
Description: SANGER: Inhibition of human H4 cell growth in a cell viability assay.
`CC1(C)CCC(c2ccc(Cl)cc2)=C(CN2CCN(c3ccc(C(=O)NS(=O)(=O)c4ccc(N[C@H](CCN5CCOCC5)CSc5ccccc5)c(S(=O)(=O)C(F)(F)F)c4)cc3)CC2)C1` [NAVITOCLAX]: the 50% inhibitory concentration (IC50) is greater than 2000 nM.

The next assay concerns HOP-92. As to the kind of experiment: cells. The format is functional, cell-based. The note with it: Homo sapiens.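 Note: cell viability readout, with IC50 reflecting inhibition of HOP-92 cell growth.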
Description: SANGER: Inhibition of human HOP-92 cell growth in a cell viability assay.
For `CC1(C)CCC(c2ccc(Cl)cc2)=C(CN2CCN(c3ccc(C(=O)NS(=O)(=O)c4ccc(N[C@H](CCN5CCOCC5)CSc5ccccc5)c(S(=O)(=O)C(F)(F)F)c4)cc3)CC2)C1` [NAVITOCLAX], the IC50 was greater than 2000 nM.

The test system of another assay is HuO-3N1. As to the kind of experiment: cells. The format is functional, cell-based. The note with it: Homo sapiens.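 Note: cell viability readout used to measure how strongly compounds suppress proliferation of human HuO-3N1 cells.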
Description: SANGER: Inhibition of human HuO-3N1 cell growth in a cell viability assay.
Take `CC1(C)CCC(c2ccc(Cl)cc2)=C(CN2CCN(c3ccc(C(=O)NS(=O)(=O)c4ccc(N[C@H](CCN5CCOCC5)CSc5ccccc5)c(S(=O)(=O)C(F)(F)F)c4)cc3)CC2)C1` [NAVITOCLAX]: the half-maximal inhibitory concentration (IC50) is greater than 2000 nM.

For the next assay, the system named is PC-3. As to the kind of experiment: cells. Type of assay: functional, cell-based. The note with it: Homo sapiens.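 Note: cell viability assay measuring growth inhibition of PC-3 cells.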
Description: SANGER: Inhibition of human PC-3 cell growth in a cell viability assay.
For the compound `CC1(C)CCC(c2ccc(Cl)cc2)=C(CN2CCN(c3ccc(C(=O)NS(=O)(=O)c4ccc(N[C@H](CCN5CCOCC5)CSc5ccccc5)c(S(=O)(=O)C(F)(F)F)c4)cc3)CC2)C1` [NAVITOCLAX], the IC50 was greater than 2000 nM.
